Experiments:
J82 bladder cancer cells = test: Capture of cultured J82 tumor cells from urine with biotinylated cell binding peptide on streptavidin magnetic beads; assay type: cell-based, human; details: for J82 bladder tumor cells: cells captured on peptide-magnetic bead conjugate from 5 ml human urine, leukocyte:J82 mixture 12.5:1 to 20:1, unit not given; for Enrichment Factor: ratio J82:total leukocytes after capture divided by ratio before capture, urine
Protocol: (§1) A green fluorescent leukocyte preparation was prepared as follows. Red blood cells in 2 ml anti-coagulated human blood were lysed by the addition of 30 ml of a hypotonic medium and incubation for 10 min at room temperature. Intact cells and debris were recovered by centrifugation at 300×g. Pelleted material was resuspended with PBS/0.5% BSA/2 mM EDTA and filtered through a 100 micron nylon filter. Leukocytes (3×10^6) were labeled with 5 μM Cell Tracker Green CMFDA (LIFE TECHNOLOGIES/MOLECULAR PROBES) in EMEM growth medium without serum for 45 min. Excess dye was removed by centrifugation at 500×g for 5 min and washing with PBS/0.5% BSA/2 mM EDTA and cells were exposed to 10% serum containing medium for 45 min to allow dye conversion.
(§2) Red fluorescent J82 cells were prepared as follows: An 80% confluent culture of J82 bladder cancer cells was labeled with 5 μM Cell Tracker Red CMPTX (LIFE SCIENCES/MOLECULAR PROBES) in EMEM growth medium without serum for 90 min. Excess dye was removed by washing the flask with EMEM/10% FBS and cells were exposed to 10% serum containing medium for 1.5 h for dye conversion. The cells were then washed with PBS and released from the flask with 0.05% trypsin. Cells were recovered and trypsin removed by centrifugation at 500×g followed by washing in PBS/0.5% BSA/2 mM EDTA.
Biotinylated peptides SEQ ID NO: 1 and SEQ ID NO: 10 were synthesized with a C-terminal Peg10 group attached to a lysine as described in Example 1. The biotinylated peptides were conjugated to magnetic microbeads (MILTENYI) by incubating 400 μl of bead suspension in 20 μM peptide for 30 min on ice with occasional mixing. Unbound peptide was removed by binding the beads to a Miltenyi MS column placed in a magnetic field. Beads were washed with PBS/0.5% BSA/2 mM EDTA and peptide conjugated beads released by removing the Miltenyi MS column from the magnetic field. A mixture of green fluorescent leukocytes and red fluorescent J82 bladder cancer cells was variously prepared in ratios between 12.5:1 and 20:1. The cell mixture (725,000 cells total) was added to 5 ml human urine and then 250 μl of peptide-magnetic bead conjugate. The whole was incubated for 45 min at room temperature with rotation.
To capture cells the peptide-magnetic bead cell mixture was passed over a Miltenyi MS column pre-equilibrated with PBS/0.5% BSA/2 mM EDTA and held in a magnetic field. Unbound cells were washed out with PBS/0.5% BSA/2 mM EDTA and retained. Cells bound to the peptide-magnetic bead conjugate were released from the Miltenyi MS column by removing the column from the magnetic field. […] The data in FIG. 3 and Table 2 below show a 463-fold to 588-fold enrichment of J82 cells from leukocytes in urine. […]

blood leukocytes = test: Capture of leukocytes from urine with biotinylated cell binding peptide on streptavidin magnetic beads (same test, obscuring cells); assay type: cell-based; details: cells captured on peptide-magnetic bead conjugate from 5 ml human urine; leukocyte:J82 mixture 12.5:1 to 20:1; unit not given
Protocol: as §1
as §2, with “EDTA. […]” for “EDTA.”

[1] = system: primary cells from voided urine; test: Capture of primary cells from voided urine on peptide coated glass slide; assay type: cell-based, human; details: for Number of captured basal and intermediate cells/peptide coated area / Number of captured superficial and squamous cells/peptide coated area: cells from 40 mL voided urine, entire peptide coated area 2.67 cm^2, H&E, bright field; for peptide selectivity: preferential capture of cell type: primary cells from voided urine
Protocol: (§3) Peptides were synthesized in a conjugatable format for unidirectional conjugation to glass. Peptides were attached to glass through a covalent bond formed between the lysine on C-terminus of the peptide and an N-Hydroxysuccinimide (NHS) group on the glass. Briefly, microscope glass slides functionalized with NHS groups ((MICROSURFACES, Inc)) were incubated with peptide solution at 200 μM for 2 hours at 30° C., ˜75% RH. At the end of the incubation the slides were washed 3 times for 5 min in washing buffer (1×PBS, 0.05% Tween 20) and subsequently deactivated in deactivation solution (MICROSURFACES, Inc) for 30 min at 30° C., ˜75% RH to deactivate any remaining uncoupled NHS groups. Eventually slides were washed twice for 5 min in washing buffer prior to being blocked for 1 hour in blocking buffer (PBS, 0.5% BSA, 2 mM EDTA).
(§4) Microscope glass slides with discrete areas functionalized with peptide were used as diagnostic cell capture devices as shown in FIG. 1. Cells used were cultured cell lines established from human transitional bladder carcinomas (J82, ATCC HTB-1 and T24, ATCC HTB-4), cells isolated from voided urine of healthy donors (primary cells), a cultured cell line established from human thyroid carcinoma (SW579) or white blood cells (WBC) obtained from human whole blood by lysing red blood cells.
(§5) Cell suspension was prepared in cell capture buffer (PBS, 0.5% BSA, 2 mM EDTA, 0-200 mM glucose) and applied directly to a peptide functionalized slide in which peptide was attached to a glass slide using the N-Hydroxysuccinimide chemistry described in Example 4 with a pipetting device. The cells were incubated on the slide for 15 min and then drained by tipping the slide to the side. The slides were washed by dipping in wash buffer (PBS, 0.5% BSA, 2 mM EDTA) to wash away unbound cells. Slides were fixed in paraformaldehyde, dried, stained (H&E) and cover slipped for microscopic examination in a bright field. For fluorescent microscopy the cells were labeled with fluorescent dyes (CELLTRACKER Green or Red; LIFE TECHNOLOGIES, INC) prior to applying to the slide. Following the 15 min incubation the slides were washed, fixed, dried and mounted with a fluorescent mounting medium for microscopic examination in a dark field.
(§6) Selective capture of urothelial cells, J82, was achieved from a mixture of J82 and white blood cells (WBC) on a peptide coated glass slide using cell binding peptides of the present disclosure. In this Example, peptides were synthesized with a C-terminal Peg10 spacer followed by a lysine and conjugated to the glass slide according to Example 4.
In another experiment, primary cells from voided urine were selectively captured onto peptide coated glass slides. Specifically, cells were isolated from 40 mL of voided urine from a second morning void and applied to a glass slide with a discrete area coated with peptide. Cells were visualized by H&E staining and counted in a bright field. Results are presented in Table 3 below as a cell number per the entire peptide coated area (2.67 cm^2). […] The sample adequacy criterion for urine cytology is at least 15 well visualized basal or intermediate cells^1.

[2] = system: J82 urothelial cancer cells; test: Selective capture of J82 urothelial cells from a mixture of J82 and white blood cells on peptide coated glass slide; assay type: cell-based, human
Protocol: as §3, §4, §5, §6
The cell binding peptides used in a first experiment were SEQ ID NO: 1, SEQ ID NO: 2, SEQ ID NO: 3, and SEQ ID NO: 4. […] Human WBC and J82 cells were labeled with different CELLTRACKER dyes, mixed at a 1 to 1 ratio and applied to a slide with discrete areas coated with peptides. The slide was washed of unbound cells and captured cells were counted under a fluorescent microscope. Data are presented in FIGS. 5A & 5B as cell number per microscope field at 100× magnification averaged from 10 fields. The slide area not coated with peptide was used as a negative control. Preferential capture of J82 urothelial cells was observed leading to depletion of WBC up to 85%. […] Thus the degree of WBC removal from the diagnostic sample can be controlled by using a peptide most suitable for the application. For example, in some circumstances the presence of some WBCs on the slide may provide valuable clinical information.
In another experiment, selective capture of urothelial cancer cells, J82, was achieved from a mixture of J82 and WBC on a peptide coated glass slide using peptides SEQ ID NO: 5, SEQ ID NO: 6, and SEQ ID NO: 7. […] Human WBC and J82 cells were labeled with different CELLTRACKER dyes, mixed at 7 to 1 ratio and applied to a slide with discrete areas coated with peptides. The slide was washed of unbound cells and captured cells were counted under a fluorescent microscope. […]

[3] = system: SW579 thyroid cancer cells; test: Selective capture of SW579 thyroid cells from a mixture of SW579 and WBC on peptide coated glass slide; assay type: cell-based, human; details: WBC:SW579 1 to 1; compared with SEQ ID NO: 4 and SEQ ID NO: 1
Protocol: as §3
Microscope glass slides with discrete areas functionalized with peptide were used as diagnostic cell capture devices as shown in FIG. 1. […]
In a first experiment peptides SEQ ID NO: 1, SEQ ID NO: 2, SEQ ID NO: 3 and SEQ ID NO: 4 were tested and peptide SEQ ID NO: 10 was used as a positive control. […] The slide was washed of unbound cells and captured cells were counted under a fluorescent microscope. […]

thyroid cancer cells = test: Selective capture of thyroid cancer cells spiked with whole blood on peptide coated slide; assay type: cell-based, human; details: H&E staining, 200x
Protocol: as §4
as §5, with “Following the 15 min incubation the slides were washed, fixed, dried and mounted with a fluorescent mounting medium for microscopic examination in a dark field.” left out

[4] = system: J82 urothelial cancer cells; test: Selective capture of J82 urothelial cancer cells from voided urine spiked with whole blood on peptide coated slide; assay type: cell-based, human; details: voided urine spiked with whole blood and J82 cells; H&E staining, 100x
Protocol: as §4
as §5, with “The” for “Cell suspension was prepared in cell capture buffer (PBS, 0.5% BSA, 2 mM EDTA, 0-200 mM glucose) and applied directly to a peptide functionalized slide in which peptide was attached to a glass slide using the N-Hydroxysuccinimide chemistry described in Example 4 with a pipetting device. The”
In this Example, peptides were synthesized with a C-terminal Peg10 spacer followed by a lysine and conjugated to the glass slide according to Example 4.
In another experiment urothelial cancer cells from voided urine were selectively captured using peptide SEQ ID NO: 5. […]

[5] = J82 (100, 500 or 1000 cells) and WBC mixed 1:72, 15 min incubation
[6] = WBC:J82 1 to 1, compared with SEQ ID NO: 1 and SEQ ID NO: 4
[7] = WBC:J82 7 to 1, compared with SEQ ID NO: 7

For “SFCPSNHDCIDWFIRSR [SEQ ID NO: 10, used as positive control in the thyroid test]”, the “J82 bladder tumor cells” value (J82 bladder cancer cells) was 53.6, the “Enrichment Factor” value (J82 bladder cancer cells) was 588 and the “Total Blood Leukocytes” value (blood leukocytes) was 0.09.

For SSFGSDCSPWGCEWVPVSR [SEQ ID NO: 4], the “Number of captured basal and intermediate cells/peptide coated area” value [1] was 21 cells/peptide coated area, the “Number of captured superficial and squamous cells/peptide coated area” value [1] was 6 cells/peptide coated area and the “peptide selectivity: preferential capture of cell type” value (“peptide selectivity” for short) [1] was “deep urothelial cells”.

In the case of SSFSNYDSPWGPNWSVISR [SEQ ID NO: 1], the “J82 bladder tumor cells” value (J82 bladder cancer cells) was 48.2, the “Enrichment Factor” value (J82 bladder cancer cells) was 463 and the “Total Blood Leukocytes” value (blood leukocytes) was 0.1.

For SSIEDLPKDWPLFGWMSSR [SEQ ID NO: 2], the “depletion of WBCs from the input material” value [2, 5] was 86%, the “reduction in WBCs relative to urothelial cells” value [2, 5] was 7.6 fold and the “capture selectivity (WBC to J82 end ratio)” value [2, 6] was “more selective”. The “capture selectivity (WBC to SW579 end ratio)” value [3] was “more selective”.

SSLESVKEPWGPGWIPVSR [SEQ ID NO: 3] was tested, and the “capture selectivity (WBC to J82 end ratio)” value [2, 6] was “more selective”, the “selective capture of thyroid cancer cells, slide washed” value (thyroid cancer cells) was “Blood cells are washed away and thyroid cells retained” and the “capture selectivity (WBC to SW579 end ratio)” value [3] was “more selective”.

SSVALSFQAVPYDFHSSR [SEQ ID NO: 5] was tested, and the “capture selectivity (WBC to J82 end ratio)” value [2, 7] was “more selective”, the “selective capture of urothelial cancer cells, slide washed” value [4] was “Blood cells are washed away and urothelial cells retained” and the “Number of captured basal and intermediate cells/peptide coated area” value [1] was 40 cells/peptide coated area. For the same sequence, the “Number of captured superficial and squamous cells/peptide coated area” value [1] was 19 cells/peptide coated area and the “peptide selectivity” value [1] was “deep urothelial cells”.

In the case of SSVQHAYQAWPGLGAYTSR [SEQ ID NO: 6], the “capture selectivity (WBC to J82 end ratio)” value [2, 7] was “more selective”, the “Number of captured basal and intermediate cells/peptide coated area” value [1] was 5 cells/peptide coated area and the “Number of captured superficial and squamous cells/peptide coated area” value [1] was 35 cells/peptide coated area. The “peptide selectivity” value [1] was “superficial and squamous cells”.

— patent publication US9279810B2, “Cell binding peptides for diagnosis and detection” (Affinergy, LLC, priority 2013, dated 2016)
